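48-hour exposure; five concentrations; linearly interpolated endpoints. At the GI50, growth is halved. TGI: concentration producing complete growth inhibition.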
What was measured:
Experiment in all cases: inhibition of tumour cell growth, NCI panel, 48 h
SK-MEL-28 melanoma = system: SK-MEL-28 melanoma
SF-539 CNS = system: SF-539 CNS
HOP-62 NSCLC = system: HOP-62 NSCLC
PC-3 prostate = system: PC-3 prostate
SN12C renal = system: SN12C renal
EKVX NSCLC = system: EKVX NSCLC
K-562 leukemia = system: K-562 leukemia
UACC-62 melanoma = system: UACC-62 melanoma
IGROV1 ovarian = system: IGROV1 ovarian
OVCAR-4 ovarian = system: OVCAR-4 ovarian
MDA-MB-435 = system: MDA-MB-435
NCI-H23 lung = system: NCI-H23 lung
OVCAR-8 ovarian = system: OVCAR-8 ovarian
MDA-MB-231 breast = system: MDA-MB-231 breast
LOX IMVI melanoma = system: LOX IMVI melanoma
SF-268 CNS = system: SF-268 CNS
DU-145 prostate = system: DU-145 prostate
HL-60(TB) leukemia = system: HL-60(TB) leukemia
MALME-3M melanoma = system: MALME-3M melanoma
M14 melanoma = system: M14 melanoma
HOP-92 NSCLC = system: HOP-92 NSCLC
SW-620 colon = system: SW-620 colon
UACC-257 melanoma = system: UACC-257 melanoma
A549 NSCLC = system: A549 NSCLC
SNB-19 CNS = system: SNB-19 CNS
CCRF-CEM leukemia = system: CCRF-CEM leukemia
HCT-116 colon = system: HCT-116 colon
SK-MEL-2 melanoma = system: SK-MEL-2 melanoma
UO-31 renal = system: UO-31 renal

## CC1=C(C(=O)Nc2ccccc2)C(c2cccc3ccccc23)n2c(nc3ccccc32)N1 (stereo not drawn)
SK-MEL-28 melanoma
  GI50: > 100 µM
  TGI: > 100 µM
SF-539 CNS
  GI50: 15.2 µM
  TGI: > 100 µM
HOP-62 NSCLC
  GI50: 20.2 µM
  TGI: 56.9 µM
PC-3 prostate
  GI50: 23.1 µM
  TGI: > 100 µM
SN12C renal
  GI50: 9.91 µM
  TGI: > 100 µM
EKVX NSCLC
  GI50: 73.7 µM
  TGI: > 100 µM
K-562 leukemia
  GI50: > 100 µM
  TGI: > 100 µM
UACC-62 melanoma
  GI50: > 100 µM
  TGI: > 100 µM
IGROV1 ovarian
  GI50: 89.2 µM
  TGI: > 100 µM
OVCAR-4 ovarian
  GI50: 5.93 µM
  TGI: > 100 µM
MDA-MB-435
  GI50: > 100 µM
  TGI: > 100 µM
NCI-H23 lung
  GI50: > 100 µM
  TGI: > 100 µM
OVCAR-8 ovarian
  GI50: 14.5 µM
  TGI: > 100 µM
MDA-MB-231 breast
  GI50: 10.1 µM
  TGI: 93.1 µM
LOX IMVI melanoma
  GI50: 11 µM
  TGI: > 100 µM
SF-268 CNS
  GI50: 30.4 µM
  TGI: > 100 µM
DU-145 prostate
  GI50: 47.3 µM
  TGI: > 100 µM
HL-60(TB) leukemia
  GI50: > 100 µM
  TGI: > 100 µM
MALME-3M melanoma
  GI50: 16.5 µM
  TGI: 82 µM
M14 melanoma
  GI50: > 100 µM
  TGI: > 100 µM
HOP-92 NSCLC
  GI50: 16.7 µM
  TGI: > 100 µM
SW-620 colon
  GI50: > 100 µM
  TGI: > 100 µM
UACC-257 melanoma
  GI50: > 100 µM
  TGI: > 100 µM
A549 NSCLC
  GI50: 4.44 µM
  TGI: > 100 µM
SNB-19 CNS
  GI50: 9.08 µM
  TGI: 76.9 µM
CCRF-CEM leukemia
  GI50: > 100 µM
  TGI: > 100 µM
HCT-116 colon
  GI50: 6.62 µM
  TGI: > 100 µM
SK-MEL-2 melanoma
  GI50: 83.3 µM
  TGI: > 100 µM
UO-31 renal
  GI50: > 100 µM
  TGI: > 100 µM

— PubChem BioAssay (NCI)
